Results reported in patent US11321826B2, “High throughput method for accurate prediction of compound-induced liver injury” (AGENCY FOR SCIENCE, TECHNOLOGY AND RESEARCH, priority 2016, dated 2022).
Read-outs that look alike come from different tables or passages of the source. Where a SMILES comes first, the peptide text is derived from it.

Legend:
hepatocytes in vivo = conditions: cited from earlier work
HepaRG cells = assay: High-content imaging of HepaRG cells after fluorescent staining of RELA and nuclear DNA; conditions: 16 h treatment; puromycin 100 μg/mL, acarbose 1000 μg/mL, tetracycline 1000 μg/mL, ethylene glycol 100 μg/mL, lithium chloride 1000 μg/mL; FIG. 3
Protocol: The HepG2 cells were cultured in T75 Corning Costar flasks with Dulbecco's modified eagle medium (DMEM) supplemented with 10% fetal bovine serum (FBS) and 1% penicillin-streptomycin. The HepG2 cells were seeded into 384-well black plates with transparent bottom (#781091; Greiner, Kremsmuenster, Austria) at a density of 10.000 cells/cm^2. The HepG2 cells were cultured for three days to attain confluency before overnight compound treatment of sixteen hours. The HepaRG cells were directly seeded at a density of 250.000 cells/cm^2 into 384-well black plates with transparent bottom (#781091; Greiner) coated with 100 μg/mL collagen I. For the first twenty-four hours of cultivation a Williams E medium, supplemented with HepaRG Thaw, Plate & General Purpose medium was used. […]
Screening was performed by using a dose-range of the following seven concentrations for each compound: 2 μM, 15 μM, 63 μM, 125 μM, 250 μM, 500 μM and 1 mM. […] Z′ values of each plate were calculated and values were all above 0.5, ranging from 0.62 to 0.89.
Cells were fixed for six hours with 3.7% formaldehyde in phosphate-buffered saline (PBS) after sixteen hours of compound exposure. […] F-actin was detected on every plate with rhodamine phalloidin (#R415; 1:100; Invitrogen, Singapore). […]

[1] = tested on: other organs than the liver; conditions: in vivo; cited from earlier work
[2] = classification based on literature on compound-induced clinical effects in humans

CN(C)[C@@H]1C(O)=C(C(N)=O)C(=O)[C@@]2(O)C(O)=C3C(=O)c4c(O)cccc4[C@@](C)(O)[C@H]3C[C@@H]12 [tetracycline]
toxicity for hepatocytes in vivo (hepatocytes in vivo; [2]): toxic for hepatocytes in vivo

Cn1cnc([N+](=O)[O-])c1Sc1ncnc2nc[nH]c12 [Azathioprine]
toxicity for hepatocytes in vivo (hepatocytes in vivo; [2]): toxic

CN1CCCC1c1cccnc1 (centres unmarked) [Nicotine]
toxicity for hepatocytes in vivo (hepatocytes in vivo; human, in vivo): not toxic

OCCO [Ethylene glycol, ethylene glycol]
phenotypic changes / altered distribution of RELA (NF-κB p65) in HepaRG cells versus vehicle control (HepaRG cells): did not induce obvious phenotypic changes | toxicity in humans for other organs than the liver [1]: nephrotoxic and neurotoxic

[Cl-].[Li+] [lithium chloride]
toxicity in humans for other organs than the liver [1]: nephrotoxic

COC(=O)[C@H](Cc1ccccc1)NC(=O)[C@@H](N)CC(=O)O [Aspartame] (H-Asp-Phe-OMe)
toxicity for hepatocytes in vivo (hepatocytes in vivo; [2]): not toxic

[Cl][Cd][Cl] [Cadmium Chloride]
toxicity for hepatocytes in vivo (hepatocytes in vivo; [2]): toxic

Cn1c(=O)c2c(ncn2C)n(C)c1=O [Caffeine]
toxicity for hepatocytes in vivo (hepatocytes in vivo; [2]): not toxic

C[C@H]1O[C@H](O[C@H]2[C@H](O)[C@@H](O)[C@@H](O[C@H]3[C@H](O)[C@@H](O)C(O)O[C@@H]3CO)O[C@@H]2CO)[C@H](O)[C@@H](O)[C@@H]1N[C@H]1C=C(CO)[C@@H](O)[C@H](O)[C@H]1O (some centres unmarked) [acarbose]
toxicity for hepatocytes in vivo (hepatocytes in vivo; [2]): toxic for hepatocytes in vivo

COc1ccc(C[C@H](N)C(=O)N[C@H]2[C@@H](O)[C@H](n3cnc4c(N(C)C)ncnc43)O[C@@H]2CO)cc1 [Puromycin, puromycin]
toxicity for hepatocytes in vivo (hepatocytes in vivo; [2]): toxic
